This note sets out measurements from ChEMBL document CHEMBL4219170, “Design, synthesis and biological evaluation of anti-pancreatic cancer activity of plinabulin derivatives based on the co-crystal structure” (Bioorg Med Chem, 2018).

Data set [1] is described as follows: Solubility of the compound in water after 24 hrs by HPLC analysis. The class given is physicochemical.
The test system of data set [2] is BXPC-3. Description: Antiproliferative activity against human BxPC3 cells after 72 hrs by sulforhodamine B assay. To be noted: BXPC-3, 72 h. The class given is functional, cell-based. On the technique in general: In SRB staining, fixed cells bind dye roughly in proportion to their protein.
In another data set the target is Tubulin (Homo sapiens) (UniProt P68371+Q9H4B7+P0DPH7+P68366+Q13509+Q71U36+P04350+Q3ZCM7+P07437+P68363+Q9BQE3+Q6PEY2+Q13885+Q9BVA1+Q9BUF5). Description: Inhibition of tubulin polymerization (unknown origin) at 5 uM after 1 min in presence of GTP by fluorescence-based assay relative to control. The class given is protein-complex assay.
The species entered for the next data set is Homo sapiens. The data set is described as follows: Inhibition of beta-tubulin polymerization in human BxPC3 cells at 5 nM after 24 hrs by DAPI staining-based fluorescence microscopic analysis. The class given is cell-based.
In data set [3] the test system is BXPC-3. Description: Antiproliferative activity against human BxPC3 cells at 12.5 nM after 72 hrs by MTT assay relative to control. The class given is functional.

Values after ≈ are worked out from the molar mass of the structure shown. Active and inactive are the calls of the source. No cut-off for these calls is given here. Bounds are passed on as bounds.

By solubility is commonly meant how much of the substance goes into solution per volume. One may read the IC50 as the point on the concentration scale where inhibition reaches its midpoint. A high value points to weaker potency. The compound `CN1CCN(C(=O)c2cccc(/C=c3\[nH]c(=O)/c(=C/c4nc[nH]c4C(C)(C)C)[nH]c3=O)c2)CC1` displayed a solubility in data set [1] of 85.568 µg/mL (≈ 185 µM). This compound gave an IC50 in the data set with BXPC-3 [2] of over 500 nM.

The term inhibition denotes the relative decrease from the control value, in per cent. The compound `CC(C)(C)c1[nH]cnc1/C=c1\[nH]c(=O)/c(=C/c2ccccc2)[nH]c1=O` [PLINABULIN] gave a solubility in data set [1] of under 0.1 µg/mL. In the data set with BXPC-3 [2], this compound displayed a half-inhibitory concentration (IC50) of 4.28 nM. Further, on Tubulin (Homo sapiens), the inhibition stood at 18.3%. For the same compound, the inhibition result in the data set filed under Homo sapiens was “Active”.

With `CC(C)(C)c1[nH]cnc1/C=c1\[nH]c(=O)/c(=C/c2cccc(C(=O)c3ccoc3)c2)[nH]c1=O`, in data set [1], the solubility was under 0.1 µg/mL. The compound further gave a half-maximal inhibitory concentration (IC50) in the data set on BXPC-3 [2] of 9.41 nM.

With `CC(C)(C)c1[nH]cnc1/C=c1\[nH]c(=O)/c(=C/c2cccc(C(=O)c3cncs3)c2)[nH]c1=O`, the solubility in data set [1] was under 0.1 µg/mL. Besides, in the data set on BXPC-3 [2], the 50% inhibitory concentration (IC50) was found to be 17.1 nM. Also, on Tubulin (Homo sapiens), the inhibition worked out at 19.9%.

`CC(C)(C)c1[nH]cnc1/C=c1\[nH]c(=O)/c(=C/c2cccc(C(=O)c3cccnc3)c2)[nH]c1=O` came in with a solubility in data set [1] of under 0.1 µg/mL. This compound had a half-maximal inhibitory concentration (IC50) in the data set with BXPC-3 [2] of 4.05 nM. Moreover, the inhibition at Tubulin (Homo sapiens) turned out to be 28.8%.

In turn, `CC(C)(C)c1[nH]cnc1/C=c1\[nH]c(=O)/c(=C/c2cccc(C(=O)c3ccc[nH]3)c2)[nH]c1=O` yielded a half-maximal inhibitory concentration (IC50) in the data set on BXPC-3 [2] of over 100 nM.

With `CC(C)(C)c1[nH]cnc1/C=c1\[nH]c(=O)/c(=C/c2cccc(C(=O)c3ccncc3)c2)[nH]c1=O`, the solubility in data set [1] is under 0.1 µg/mL. This compound displayed a half-maximal inhibitory concentration (IC50) with BXPC-3 [2] of 23.8 nM. Moreover, at Tubulin (Homo sapiens), the inhibition was found to be 34.1%.

Turning to `CC(C)(C)c1[nH]cnc1/C=c1\[nH]c(=O)/c(=C/c2cccc(C(=O)N3CCC3)c2)[nH]c1=O`, the solubility in data set [1] was found to be 4.231 µg/mL (≈ 10.1 µM). The compound also gave a half-maximal inhibitory concentration (IC50) in the data set with BXPC-3 [2] of over 500 nM.

The compound `O=C(c1cccc(/C=c2\[nH]c(=O)/c(=C/c3ccccn3)[nH]c2=O)c1)N1CCCCC1` registered a solubility in data set [1] of under 0.1 µg/mL. Also, the IC50 with BXPC-3 [2] was over 500 nM.

With `CC(C)(C)c1[nH]cnc1/C=c1\[nH]c(=O)/c(=C/c2cccc(C(=O)N3CCCC3)c2)[nH]c1=O`, the solubility in data set [1] came out at 0.454 µg/mL (≈ 1.05 µM). In the data set on BXPC-3 [2], the 50% inhibitory concentration (IC50) worked out at 325 nM.

For `CC(C)(C)c1[nH]cnc1/C=c1\[nH]c(=O)/c(=C/c2cccc(C(=O)c3ccccc3)c2)[nH]c1=O`, in data set [1], the solubility was under 0.1 µg/mL.

Turning to `CC(C)(C)c1[nH]cnc1/C=c1\[nH]c(=O)/c(=C/c2cccc(C(=O)N3CCCCC3)c2)[nH]c1=O`, the solubility in data set [1] is under 0.1 µg/mL. For the same compound, the half-inhibitory concentration (IC50) in the data set with BXPC-3 [2] amounted to 100 nM.

As for `CC(C)(C)c1[nH]cnc1/C=c1\[nH]c(=O)/c(=C/c2cccc(C(=O)N3CCOCC3)c2)[nH]c1=O`, the solubility in data set [1] worked out at 1.79 µg/mL (≈ 3.98 µM). In the data set on BXPC-3 [2], this compound returned an IC50 of 257 nM.

With `O=C(c1cccc(/C=c2\[nH]c(=O)/c(=C/c3ccccn3)[nH]c2=O)c1)N1CCC1`, the solubility in data set [1] was 0.662 µg/mL (≈ 1.77 µM). In addition, the IC50 in the data set with BXPC-3 [2] was over 500 nM.

In the data set with BXPC-3 [2], `CC(C)(C)c1[nH]cnc1/C=c1\[nH]c(=O)/c(=C/c2cccc(C(=O)c3cc[nH]c3)c2)[nH]c1=O` had an IC50 of over 100 nM.

Compound `CN1CCN(C(=O)c2cccc(/C=c3\[nH]c(=O)/c(=C/c4ccccn4)[nH]c3=O)c2)CC1` showed a solubility in data set [1] of 16.302 µg/mL (≈ 39 µM). Further, the IC50 in the data set on BXPC-3 [2] was over 500 nM.

`CC(C)(C)c1[nH]cnc1/C=c1\[nH]c(=O)/c(=C/c2cccc(C(=O)c3cccs3)c2)[nH]c1=O`: the solubility in data set [1] was under 0.1 µg/mL. Also, inhibition with BXPC-3 [2] was half-maximal at 1.72 nM (IC50). For the same compound, the inhibition on Tubulin (Homo sapiens) was 46.4%.

In data set [1], `CC(C)(C)c1[nH]cnc1/C=c1\[nH]c(=O)/c(=C/c2cccc(C(=O)c3ccccn3)c2)[nH]c1=O` registered a solubility of under 0.1 µg/mL. Besides, the half-inhibitory concentration (IC50) in the data set on BXPC-3 [2] was determined as 7.58 nM. Further, the inhibition at Tubulin (Homo sapiens) came to 36.6%.

In turn, `CC(C)(C)c1[nH]cnc1/C=c1\[nH]c(=O)/c(=C/c2cccc(C(=O)c3ccsc3)c2)[nH]c1=O` returned a solubility in data set [1] of under 0.1 µg/mL. The same compound yielded an IC50 with BXPC-3 [2] of 1.56 nM. The inhibition at Tubulin (Homo sapiens) was 39.3%.

Regarding `O=C(c1ccccc1)c1cccc(/C=c2\[nH]c(=O)/c(=C/c3ccccn3)[nH]c2=O)c1`, the solubility in data set [1] was under 0.1 µg/mL. The same compound yielded an IC50 in the data set with BXPC-3 [2] of 6.27 nM. This compound yielded an Activity with BXPC-3 [3] of 85%.

Compound `CC(C)(C)c1[nH]cnc1/C=c1\[nH]c(=O)/c(=C/c2cccc(C(=O)c3ccco3)c2)[nH]c1=O` displayed a solubility in data set [1] of under 0.1 µg/mL. This compound registered an IC50 with BXPC-3 [2] of 9.23 nM.
